How the values were obtained:
Format in all cases: physicochemical
[1] = Optimal amount of Polysorbate 20: solubility of solutions after storage, by naked eye; design: key: +: not dissolved (or deposited); −: dissolved; settings: KRN7000 200 μg/ml, stored as solution 25° C.
Method: Next, 20 mg of the active component (KRN7000) was weighed and stirred in 100 ml of the Polysorbate solutions having a variety of concentrations in a heated bath at 80° C. for 20 minutes in order to form a solution. After cooling with running water, the mixture was filtered through a 0.22 μm filter, and transparent colorless glass vials having a volume of 5 ml were charged with a 2 ml portion of each of a variety of solutions and sealed up.
These samples were stored at 25° C. for 2 weeks, and judged of their solubility. The samples judged in solution were further stored, and judged again of their solubility after 1 month.
(§1) The solubility was judged by cleaning the outside of the vial and placing it beneath the white light source in the darkroom for observation with naked eye at the position of a luminous intensity of about 5,000 lux. When the sample was clear with no precipitates, it was judged that the active component was dissolved.
In the table, the variations with the passage of time after storage represent the solubility when stored in the form of solution.

[2] = Cooling condition after dissolution with heating 1: turbidity (absorbance 660 nm, kaolin standard); settings: Polysorbate 20 0.5%, histidine 0.75%, sucrose 5.6%; cooling 73° C. → 30° C., 23 minutes; reconstituted in 1 ml distilled water
Method: First, Polysorbate 20 was dissolved in distilled water in a concentration of 0.5%, histidine in a concentration of 0.75%, and sucrose in a concentration of 5.6%. Next, 800 mg of the active component (KRN7000) was weighed and stirred in 4 liters of the solvent under heating at 73° C. for 30 minutes in order to form a solution. After dissolution, the mixture was divided into about 500 ml portions, cooled with stirring from 73° C. to 30° C. (6 minutes), from 73° C. to 30° C. (23 minutes), and from 73° C. to 30° C. (120 minutes). […]
The turbidity of the solutions prepared respective cooling conditions before or after the filtration step, and the lyophilized composition thus obtained which were reconstituted after leaving standing at room temperature (25° C. ) for 3 hours from the lyophilization step, were measured. In this connection, the lyophilized composition was reconstituted in 1 ml of distilled water for injection, left standing for 30 minutes, and turbidity was measured when the foams generated on reconstitution disappeared.
The turbidity was measured by the following method: various dilutions including 50-fold dilution (kaolin 2 μg/ml, turbidity 2.00), 100-fold dilution (kaolin 1 μg/ml, turbidity 1.00), and 200-fold dilution (kaolin 0.5 μg/ml, turbidity 0.50) were prepared by diluting the turbidity standard (kaolin, 0.1 mg/ml) with distilled water. […]

[3] = Additives for improving re-solubility during storage, mannitol as excipient; settings: lyophilized, Polysorbate 20 0.5%, 25° C.
Method: First, Polysorbate 20 was dissolved in distilled water in a concentration of 0.5%, and mannitol and a variety of additives such concentrations as listed in Table 8. Next, 20 mg of the active component (KRN7000) was weighed and stirred in 100 ml of the solvents in a heated bath to 80° C. for 20 minutes in order to form a solution. After cooling with running water, the mixture was filtered through a 0.22 μm filter, and transparent colorless glass vials having a volume of 5 ml were charged with 1 ml portion of each of a variety of solutions thus obtained and subjected to lyophilization. Lyophilization was carried out under the condition of preliminary freezing at −40° C. for 2 hours and drying at −20° C. for 24 hours, 10° C. for 12 hours, and finally at 25° C. for 5 hours to give the lyophilized product. The degree of vacuum was set at 0.1 Torr or less during drying step.
After the lyophilization step, the lyophilized composition was stored at 25° C. After storage for 1 month, the lyophilized composition was reconstituted in 1 ml of distilled water for injection, left standing for 30 minutes, and solubility was judged when the foams generated on reconstitution disappeared. The samples judged in solution were further stored, and judged again of their solubility after 4 months.
as §1, with “in a” for “in the”

Variation with the passage of time after storage (by naked eye) ([1]; Polysorbate 20 0.1%, 2 weeks): +
Variation with the passage of time after storage (by naked eye) ([1]; Polysorbate 20 0.2%, 2 weeks): +
Variation with the passage of time after storage (by naked eye) ([1]; Polysorbate 20 0.3%, 1 month): +
Variation with the passage of time after storage (by naked eye) ([1]; Polysorbate 20 0.3%, 2 weeks): −
Variation with the passage of time after storage (by naked eye) ([1]; Polysorbate 20 0.5%, 1 month): +
Variation with the passage of time after storage (by naked eye) ([1]; Polysorbate 20 0.5%, 2 weeks): −
Variation with the passage of time after storage (by naked eye) ([1]; Polysorbate 20 1.0%, 1 month): +
Variation with the passage of time after storage (by naked eye) ([1]; Polysorbate 20 1.0%, 2 weeks): −
Variation with the passage of time after storage (by naked eye) ([1]; Polysorbate 20 2.0%, 1 month): +
Variation with the passage of time after storage (by naked eye) ([1]; Polysorbate 20 2.0%, 2 weeks): −
Variation with the passage of time after storage (by naked eye) ([1]; Polysorbate 20 4.0%, 1 month): +
Variation with the passage of time after storage (by naked eye) ([1]; Polysorbate 20 4.0%, 2 weeks): −
Variation with the passage of time after storage (by naked eye) ([1]; Polysorbate 20 8.0%, 1 month): +
Variation with the passage of time after storage (by naked eye) ([1]; Polysorbate 20 8.0%, 2 weeks): −
Turbidity Lyophilized composition [2]: 0.36
Re-solubility after storage (by naked eye) ([3]; Mannitol 10%, Sodium deoxycholate, 1%, 1 month): − (dissolved)
Re-solubility after storage (by naked eye) ([3]; Mannitol 10%, Sodium deoxycholate, 1%, 4 months): − (dissolved)
Re-solubility after storage (by naked eye) ([3]; Mannitol 10%, no additive, 1 month): − (dissolved)
Re-solubility after storage (by naked eye) ([3]; Mannitol 10%, no additive, 4 months): + (not dissolved (or deposited))
Re-solubility after storage (by naked eye) ([3]; Mannitol 15%, Glycerol, 0.1%, 1 month): + (not dissolved (or deposited))
Re-solubility after storage (by naked eye) ([3]; Mannitol 15%, Glycerol, 0.1%, 4 months): + (not dissolved (or deposited))
Re-solubility after storage (by naked eye) ([3]; Mannitol 15%, Glycerol, 1%, 1 month): + (not dissolved (or deposited))
Re-solubility after storage (by naked eye) ([3]; Mannitol 15%, Glycerol, 1%, 4 months): + (not dissolved (or deposited))
Re-solubility after storage (by naked eye) ([3]; Mannitol 15%, PEG400, 1%, 1 month): + (not dissolved (or deposited))
Re-solubility after storage (by naked eye) ([3]; Mannitol 15%, PEG400, 1%, 4 months): + (not dissolved (or deposited))
Re-solubility after storage (by naked eye) ([3]; Mannitol 15%, Sodium deoxycholate, 1%, 1 month): + (not dissolved (or deposited))
Re-solubility after storage (by naked eye) ([3]; Mannitol 15%, Sodium deoxycholate, 1%, 4 months): + (not dissolved (or deposited))
Re-solubility after storage (by naked eye) ([3]; Mannitol 15%, no additive, 1 month): + (not dissolved (or deposited))
Re-solubility after storage (by naked eye) ([3]; Mannitol 15%, no additive, 4 months): + (not dissolved (or deposited))
Compound: CCCCCCCCCCCCCCCCCCCCCCCCCC(=O)N[C@@H](CO[C@H]1O[C@H](CO)[C@H](O)[C@H](O)[C@H]1O)[C@H](O)[C@H](O)CCCCCCCCCCCCCC [KRN7000, (2S,3S,4R)-1-(α-D-galactopyranosyloxy)-2-hexacosanoylamino-3,4-octadecanediol]
